Among the test systems are M14; K562; HOP-62; NCI/ADR-RES; MDA-MB-435; NCI-H23; SNB-19; MDA-N; SN12C; SK-MEL-28; PC-3; NCI-H522; Malme-3M; U-251; HL-60; 786-0; MOLT-4; SK-MEL-2; COLO 205; CAKI-1.
Common to all, as to assay: growth of human tumour cells (NCI), 48 h

SMILES strings stand for the structures.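 Cells were grown in 96-well plates and exposed to each compound for 48 hours at five concentrations; endpoints were interpolated linearly between bracketing concentrations, or set to the highest concentration if not reached. GI50 marks 50% less growth.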 Calls of active or inactive are those of the source. No stated cut-off is given here; in the data, active = GI50 up to about 1.1 µM and inactive = higher.

In the case of `COc1ccc(C2OC2C(=O)C23CC4CC(CC(C4)C2)C3)cc1` (centres undefined), the GI50 was > 100 µM (inactive) in the assay with M14; 27.2 µM (inactive) in the assay on K562; 31.1 µM (inactive) with HOP-62; > 100 µM (inactive) in the assay on NCI/ADR-RES; 48.6 µM (inactive) in the assay with MDA-MB-435; 76 µM (inactive) in the assay with NCI-H23. Moreover, the GI50 is 33.3 µM (inactive) with SNB-19; 37.8 µM (inactive) in the assay with MDA-N; 36.8 µM (inactive) with SN12C; > 100 µM (inactive) with SK-MEL-28; 31.9 µM (inactive) in the assay with PC-3; 45.5 µM (inactive) with NCI-H522. Further, the GI50 was > 100 µM (inactive) with Malme-3M; 36.1 µM (inactive) with U-251; 15.9 µM (inactive) with HL-60; 46.3 µM (inactive) with 786-0; 47.1 µM (inactive) with MOLT-4.

As for `Cc1cc2c3c([nH]c2c2ccnc(C)c12)CCCC3`, the GI50 with M14 is 1.9 µM (inactive); with K562, 2.07 µM (inactive); in the assay on HOP-62, 1.79 µM (inactive); with NCI/ADR-RES it was 5.13 µM (inactive); in the assay with SK-MEL-2 it was 1.62 µM (inactive); in the assay with MDA-MB-435, 1.88 µM (inactive). The GI50 was 2.86 µM (inactive) in the assay on NCI-H23; 1.78 µM (inactive) with MDA-N; 1.77 µM (inactive) in the assay on SN12C; 1.76 µM (inactive) in the assay on SK-MEL-28; 3.78 µM (inactive) in the assay on PC-3; 1.69 µM (inactive) in the assay with COLO 205. The GI50 in the assay with Malme-3M is 1.29 µM (inactive); in the assay with U-251 it was 1.88 µM (inactive); in the assay with HL-60, 1.69 µM (inactive); in the assay on 786-0, 1.68 µM (inactive); in the assay with MOLT-4, 2.01 µM (inactive).

Regarding `O=C(C/N=C(\CN(c1ccccc1)c1ccccc1)Oc1c(Cl)cc(Cl)cc1Cl)N1c2ccccc2Sc2ccccc21`, the GI50 was 30.5 µM (inactive) in the assay on M14; > 10 µM (inactive) with K562; > 100 µM (inactive) with HOP-62; 57.9 µM (inactive) in the assay with NCI/ADR-RES; 34.2 µM (inactive) with MDA-MB-435; 40.2 µM (inactive) in the assay with NCI-H23. Moreover, the GI50 with SNB-19 was > 100 µM (inactive); in the assay with MDA-N, 51.1 µM (inactive); with SN12C, 47.8 µM (inactive); with SK-MEL-28, > 100 µM (inactive); in the assay with PC-3, 34 µM (inactive); with COLO 205 it was 34.8 µM (inactive). The GI50 is 28.3 µM (inactive) in the assay on NCI-H522; 31 µM (inactive) in the assay with Malme-3M; 53.5 µM (inactive) in the assay on U-251; 47.4 µM (inactive) in the assay with HL-60; 55.3 µM (inactive) in the assay with 786-0; 30.6 µM (inactive) with MOLT-4.

On to `CNC1(C(=O)O)CC1`, for which the GI50 in the assay with M14, in the assay on K562, in the assay on HOP-62, in the assay with NCI/ADR-RES, in the assay on MDA-MB-435 and in the assay on NCI-H23 was > 100 µM (inactive) throughout. For the same compound, the GI50 with SNB-19, with MDA-N, with SN12C, with SK-MEL-28, in the assay on PC-3 and in the assay with NCI-H522 was > 100 µM (inactive) throughout. In addition, the GI50 in the assay on Malme-3M, with U-251, with HL-60, in the assay on 786-0 and in the assay on MOLT-4 was > 100 µM (inactive) throughout.

Regarding `O=C1c2c(ccc3c2CCCC3)CC12Cc1ccc3c(c1C2=O)CCCC3`, the GI50 in the assay with M14, with K562, with HOP-62, in the assay on NCI/ADR-RES, with SK-MEL-2 and in the assay on MDA-MB-435 was > 100 µM (inactive) each time. Moreover, the GI50 in the assay on NCI-H23, in the assay with SNB-19, with MDA-N, with SK-MEL-28, in the assay with PC-3 and in the assay with NCI-H522 was > 100 µM (inactive) throughout. Also, the GI50 with Malme-3M is 28.2 µM (inactive); in the assay with U-251 it was 56.9 µM (inactive); with HL-60, > 100 µM (inactive); in the assay on 786-0, > 100 µM (inactive); with MOLT-4 it was > 100 µM (inactive).

Take `O=C1CSC2(CC(/C=C/c3ccccc3O)=NN2c2cccc(S(=O)(=O)O)c2)N1c1nc2ccccc2s1` (centres undefined): the GI50 is 59.4 µM (inactive) in the assay with M14; 24.7 µM (inactive) in the assay on K562; 26.7 µM (inactive) with NCI/ADR-RES; 34 µM (inactive) in the assay on SK-MEL-2; 21.4 µM (inactive) in the assay with MDA-MB-435; 22.1 µM (inactive) in the assay with NCI-H23. In addition, the GI50 is 53.7 µM (inactive) in the assay with SNB-19; 38.3 µM (inactive) in the assay with MDA-N; 24.8 µM (inactive) in the assay on SN12C; 56.5 µM (inactive) in the assay on SK-MEL-28; 64 µM (inactive) with PC-3; 29.9 µM (inactive) with COLO 205. The GI50 was 15.7 µM (inactive) with NCI-H522; 41.9 µM (inactive) in the assay on Malme-3M; 33.9 µM (inactive) in the assay on U-251; 15.7 µM (inactive) in the assay on HL-60; 31.6 µM (inactive) in the assay on 786-0; 20.3 µM (inactive) with MOLT-4. Also, the GI50 with CAKI-1 is 28.3 µM (inactive).

For the compound `COC(=O)C1=C(O)C(C(=O)OC)[C@]2(O)[C@H](C(=O)OC)[C@H]1C[C@@H](c1ccc(O)cc1)[C@H]2C(=O)OC` (some centres undefined), the GI50 was 25.4 µM (inactive) in the assay with M14; 22.8 µM (inactive) with K562; 18 µM (inactive) with HOP-62; 30.1 µM (inactive) in the assay with NCI/ADR-RES; 18.7 µM (inactive) in the assay on MDA-MB-435; 28.1 µM (inactive) with NCI-H23. The GI50 in the assay with SNB-19 is 30.2 µM (inactive); in the assay on MDA-N, 20.1 µM (inactive); with SN12C, 17.7 µM (inactive); with SK-MEL-28, 41.8 µM (inactive); with PC-3, 19.9 µM (inactive); in the assay on COLO 205, 31.2 µM (inactive). In addition, the GI50 in the assay with Malme-3M is 32.7 µM (inactive); with U-251, 18.3 µM (inactive); in the assay with HL-60, 27.2 µM (inactive); in the assay with 786-0, 39 µM (inactive); in the assay on MOLT-4 it was 30.3 µM (inactive); with CAKI-1, 21.2 µM (inactive).

`CC(C)(C)[Si](C)(C)OCC1OC(n2ccc(=O)[nH]c2=O)C(O[Si](C)(C)C(C)(C)C)[C@@]12O[C@H]2C(N)=O` (some centres undefined): the GI50 in the assay on M14 was 11.3 µM (inactive); in the assay on K562, 7.38 µM (inactive); in the assay with HOP-62, 13.8 µM (inactive); with NCI/ADR-RES it was 8.57 µM (inactive); in the assay on SK-MEL-2, 16.3 µM (inactive); with MDA-MB-435, 4.92 µM (inactive). Besides, the GI50 in the assay on NCI-H23 was 12.2 µM (inactive); with SNB-19, 10.9 µM (inactive); with MDA-N it was 5.37 µM (inactive); in the assay with SN12C it was 13 µM (inactive); with SK-MEL-28, 17.6 µM (inactive); in the assay on PC-3 it was 5.61 µM (inactive). For the same compound, the GI50 in the assay on COLO 205 is 7.64 µM (inactive); in the assay on NCI-H522, 2.22 µM (inactive); in the assay on U-251, 4.28 µM (inactive); with HL-60 it was 96.6 µM (inactive); in the assay with 786-0, 5.11 µM (inactive); in the assay on MOLT-4, 6.53 µM (inactive). Moreover, the GI50 with CAKI-1 is 11.6 µM (inactive).

As to `COc1ccc2c(c1O)-c1c(OC)c(OC)cc3c1[C@H](C2)[N+](C)(C)CC3`, the GI50 in the assay on M14 was > 100 µM (inactive); in the assay with K562, 0.0409 µM (active); in the assay on NCI/ADR-RES it was > 100 µM (inactive); in the assay with SK-MEL-2, > 100 µM (inactive); with MDA-MB-435, > 100 µM (inactive); in the assay on NCI-H23 it was > 100 µM (inactive). For the same compound, the GI50 with SNB-19, with MDA-N, with SN12C, in the assay with SK-MEL-28, in the assay on PC-3 and with COLO 205 was > 100 µM (inactive) throughout. Also, the GI50 in the assay with NCI-H522, in the assay with Malme-3M, in the assay on U-251, in the assay with HL-60, in the assay with 786-0 and in the assay with MOLT-4 was > 100 µM (inactive) each time. In the assay with CAKI-1, the GI50 was > 100 µM (inactive).

For `CN(C)Cc1cc(C(=O)/C=C/c2c(Cl)cccc2Cl)cc(CN(C)C)c1O`, the GI50 is 4.91 µM (inactive) in the assay on M14; 3.01 µM (inactive) in the assay with K562; 7.85 µM (inactive) in the assay on HOP-62; 4.57 µM (inactive) in the assay on NCI/ADR-RES; 9.2 µM (inactive) in the assay on MDA-MB-435; 14.6 µM (inactive) with NCI-H23. Moreover, the GI50 was 14.8 µM (inactive) in the assay on SNB-19; 3.67 µM (inactive) with MDA-N; 5.82 µM (inactive) in the assay on SN12C; 8.49 µM (inactive) in the assay on SK-MEL-28; 5.64 µM (inactive) in the assay with PC-3; 2.96 µM (inactive) in the assay on COLO 205. For the same compound, the GI50 was 2.98 µM (inactive) in the assay on NCI-H522; 3.69 µM (inactive) in the assay with Malme-3M; 11.4 µM (inactive) in the assay on U-251; 2.07 µM (inactive) with HL-60; 5.2 µM (inactive) in the assay with 786-0; 4.19 µM (inactive) in the assay with MOLT-4. Also, the GI50 in the assay on CAKI-1 is 2.88 µM (inactive).

As to `CCSc1nc(-c2cccs2)nc2ccc(I)cc12`, the GI50 in the assay on M14, in the assay with K562, in the assay with HOP-62, with NCI/ADR-RES, in the assay on SK-MEL-2 and in the assay on MDA-MB-435 was > 100 µM (inactive) throughout. Besides, the GI50 in the assay on NCI-H23, in the assay on SNB-19, in the assay with MDA-N, in the assay on SN12C, in the assay on SK-MEL-28 and with PC-3 was > 100 µM (inactive) throughout. In addition, the GI50 with COLO 205, with NCI-H522, in the assay on U-251, with HL-60, with 786-0 and in the assay with MOLT-4 was > 100 µM (inactive) each time. The GI50 in the assay on CAKI-1 is > 100 µM (inactive).
